Key:
[1] = system: endothelial cells (HUVE cells); test: Effect on growth of endothelial cells (HUVE cells, basic FGF, MTT method); assay type: cell-based; details: Homo sapiens, Endothelial cell, 72 h, basic FGF 2 ng/ml, 3 days, read-out: IC50 (concentration inhibiting growth of endotherial cells by 50%)
Description: This experiment was conducted by using endothelial cells (HUVE cells) obtained from human umbilical vein. […] After 24 hours, human recombinant basic FGF (endotherial cell growth factor) was added thereto in the final concentration of 2 ng/ml and a test compound was further added, followed by cultivation for 3 days.

calmodulin = calmodulin (Bos taurus, UniProt P62157); test: Calmodulin inhibitory activity (calmodulin-activated cyclic nucleotide phosphodiesterase, [3H]cGMP); assay type: biochemical; details: 10^-5 M
[2] = system: spontaneous hypertensive rat (SHR); test: Hypotensive activity in spontaneous hypertensive rat (SHR), Plethysmograph method; assay type: in vivo; details: SHR male rats, oral, 100 mg/kg; for Change of blood pressure, 1 hour: 1 hour after administration; for Change of blood pressure, 5 hours: 5 hours after administration
Description: Hypotensive activity in spontaneous hypertensive rat (SHR)
SHR male rats of twenty weeks old were used. They were warmed in an incubator at 37° C. for 5 minutes and the measurement was conducted according to Plethysmograph method. Medicines (the compounds in the above Examples) were suspended in gum arabic-water and were orally administered in an amount of 2.5 ml/kg. Blood pressure was measured before administration of medicines, at 1 hour and at 5 hours after administration, and the change of the value from that before administration was determined, respectively.

rat kidneys = test: Effect on acute renal failure caused by ischemia and following reperfusion in rat kidneys; assay type: in vivo; details: 1 hour before occlusion, 20 hours after reperfusion
Description: Effect on acute renal failure caused by ischemia and following reperfusion in rat kidneys.
SD rats (male) of 6 to 7 weeks old were anesthetized with pentobarbital sodium (50 mg/kg, i.p.) and bilateral renal arteries were ligated. After 45 minutes, a clip was removed to reperfuse. After 20 hours, blood was collected from abdominal aorta under anesthesia with pentobarbital sodium and blood urea nitrogen (BUN) was measured. Medicines (compounds obtained in the above Examples) were orally administered (5 ml/kg) 1 hour before occulusion of renal artery.

rat heart = test: Effect on incidence of arrhythmia caused by ischemia and following reperfusion in rat heart; assay type: in vivo; details: 1 hour before ligation, until 10 minutes after reperfusion
Description: Effect on incidence of arrhythmia caused by ischemia and following reperfusion in rat heart
Male Sprague Dawley rats (Japan Clea) of 9 to 10 weeks old were anesthetized with 50 mg/kg (i.p.) of sodium pentobarbital. The heart was exposed by a left thoractomy under artificial ventilation with room air and silk suture was placed under the main left coronary artery (LAD) to ligate for 5 minutes. Then, the ligature was released again for reperfusion. The incidence of ventricular tachycardia (VT), ventricular fibrillation (VF) and cardiac arrest (CA) caused until 10 minutes after reperfusion were noted. Medicines (compounds obtained in the above Examples) were orally administered (5 ml/kg) at 1 hour before tightening the ligature. The effect of medicines were estimated in comparison with the frequency of a group received a vehicle according to X^2 -test.

[3] = system: experimental ischemic disorders; details: in vivo; cited from earlier work

Structure (SMILES)	inhibition at 10 µM (calmodulin) [%]	Change of blood pressure, 1 hour [2] [mmHg]	Change of blood pressure, 5 hours [2] [mmHg]	CA (Frequency), cardiac arrest (rat heart; 30 mg/kg oral)	VF (Frequency), ventricular fibrillation (rat heart; 30 mg/kg oral)	VT (Frequency), ventricular tachycardia (rat heart; 30 mg/kg oral)	further results
CC(C)OC(=O)NCCSc1cccc2nccn12 [21']	–	–	–	–	–	–	IC50 [1]: 5 µM
CS(=O)(=O)NCCSc1cccc2nccn12 [Compound 1, 5-[2-(methylsulfonylamino)ethylthio]imidazo[1,2-a]pyridine]	94	-11.2	-11.5	0/4	1/4	1/4	Blood urea nitrogen (rat kidneys; 10 mg/kg oral): 83.3 ± 20.4 mg/dL; Blood urea nitrogen (rat kidneys; 30 mg/kg oral): 71.1 ± 11.4 mg/dL; Blood urea nitrogen (rat kidneys; 50 mg/kg oral): 65.6 ± 5.1 mg/dL; CA (Frequency), cardiac arrest (rat heart; 10 mg/kg oral): 1/4; VF (Frequency), ventricular fibrillation (rat heart; 10 mg/kg oral): 2/4; VT (Frequency), ventricular tachycardia (rat heart; 10 mg/kg oral): 2/4
O=S(=O)(NCCCSc1cccc2nccn12)C(F)(F)F [Compound 28, 5-[3-(Trifluoromethylsulfonylamino)propylthio]imidazo[1,2-a]pyridine]	72	-13.5	-43.0	–	–	–	–
CS(=O)(=O)NCCCOc1cccc2nccn12 [Compound 64, 5-[3-(methylsulfonylamino)propyloxy]imidazo[1,2-a]pyridine]	82	-31.0	-27.0	1/3	1/3	1/3	–
O=S(=O)(NCCCCOc1cccc2nccn12)C(F)(F)F [Compound 67, 5-[4-(Trifluoromethylsulfonylamino)butyloxy]imidazo[1,2-a]pyridine]	72	-15.0	-22.0	–	–	–	–
O=S(=O)(NCCCCCOc1cccc2nccn12)C(F)(F)F [Compound 69, 5-[5-(Trifluoromethylsulfonylamino)pentyloxy]imidazo[1,2-a]pyridine]	57	-7.0	-32.0	–	–	–	–
O=C(NCc1ccncc1)OCCSc1cccc2nccn12 [Compound 127, 5-[2-[4-(Pyridyl)methylcarbamoyloxy]ethylthio]imidazo[1,2-a]pyridine]	57	–	–	0/3	1/3	1/3	–
CN(C)CCCN1c2ccccc2Sc2ccc(Cl)cc21 [chlorpromazine]	–	–	–	–	–	–	effect on experimental ischemic disorders (in words) [3]: effective for experimental ischemic disorders

— patent US5244908A, “Imidazopyridine derivatives and their pharmaceutical use” (Takeda Chemical Industries, Ltd., priority 1990, dated 1993)
